Results from PubChem BioAssay (NCI).
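Briefly, cells in 96-well plates were exposed to five compound concentrations for 48 h, and endpoints were estimated by linear interpolation. TGI: total growth inhibition.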

How the values were obtained:
Assay in all cases: DTP human tumour cell line panel, 48 h
OVCAR-5 ovarian = test system: OVCAR-5 ovarian
A549 NSCLC = test system: A549 NSCLC
SF-539 CNS = test system: SF-539 CNS
NCI-H23 lung = test system: NCI-H23 lung
COLO 205 colon = test system: COLO 205 colon
HL-60(TB) leukemia = test system: HL-60(TB) leukemia
T-47D breast = test system: T-47D breast
SF-295 CNS = test system: SF-295 CNS
NCI-H226 lung = test system: NCI-H226 lung
HCT-116 colon = test system: HCT-116 colon
MALME-3M melanoma = test system: MALME-3M melanoma
SK-MEL-5 melanoma = test system: SK-MEL-5 melanoma
SN12C renal = test system: SN12C renal
MDA-N = test system: MDA-N
SK-MEL-28 melanoma = test system: SK-MEL-28 melanoma
SNB-19 CNS = test system: SNB-19 CNS
U251 CNS = test system: U251 CNS
ACHN renal = test system: ACHN renal
A498 renal = test system: A498 renal
IGROV1 ovarian = test system: IGROV1 ovarian
HS 578T breast = test system: HS 578T breast
OVCAR-8 ovarian = test system: OVCAR-8 ovarian
HOP-92 NSCLC = test system: HOP-92 NSCLC
OVCAR-4 ovarian = test system: OVCAR-4 ovarian
MCF7 breast = test system: MCF7 breast
CCRF-CEM leukemia = test system: CCRF-CEM leukemia
K-562 leukemia = test system: K-562 leukemia
KM12 colon = test system: KM12 colon
UO-31 renal = test system: UO-31 renal
HT29 colon = test system: HT29 colon
SK-OV-3 ovarian = test system: SK-OV-3 ovarian
UACC-257 melanoma = test system: UACC-257 melanoma
NCI-H522 lung = test system: NCI-H522 lung
EKVX NSCLC = test system: EKVX NSCLC
NCI/ADR-RES ovarian = test system: NCI/ADR-RES ovarian
NCI-H460 lung = test system: NCI-H460 lung
SF-268 CNS = test system: SF-268 CNS
OVCAR-3 ovarian = test system: OVCAR-3 ovarian
DU-145 prostate = test system: DU-145 prostate
MDA-MB-231 breast = test system: MDA-MB-231 breast
MOLT-4 leukemia = test system: MOLT-4 leukemia
SK-MEL-2 melanoma = test system: SK-MEL-2 melanoma
786-0 renal = test system: 786-0 renal
BT-549 breast = test system: BT-549 breast
HOP-62 NSCLC = test system: HOP-62 NSCLC
TK-10 renal = test system: TK-10 renal
PC-3 prostate = test system: PC-3 prostate
SW-620 colon = test system: SW-620 colon
M14 melanoma = test system: M14 melanoma
UACC-62 melanoma = test system: UACC-62 melanoma
MDA-MB-435 = test system: MDA-MB-435
CAKI-1 renal = test system: CAKI-1 renal
LOX IMVI melanoma = test system: LOX IMVI melanoma
HCC-2998 colon = test system: HCC-2998 colon
SNB-75 CNS = test system: SNB-75 CNS
RPMI-8226 leukemia = test system: RPMI-8226 leukemia
HCT-15 colon = test system: HCT-15 colon

Q: What does the source list for `C=C1CC(C)(COc2ccc3c(C)c(C)c(=O)oc3c2C)OC1=O` (centres undefined)?
A: TGI (OVCAR-5 ovarian): 16.2 µM; TGI (A549 NSCLC): 21 µM; TGI (SF-539 CNS): 7.04 µM; TGI (NCI-H23 lung): 5.25 µM; TGI (COLO 205 colon): 2.75 µM; TGI (HL-60(TB) leukemia): 0.954 µM; TGI (T-47D breast): 3.09 µM; TGI (SF-295 CNS): 16.1 µM; TGI (NCI-H226 lung): 32.6 µM; TGI (HCT-116 colon): 2.41 µM; TGI (MALME-3M melanoma): 5.53 µM; TGI (SK-MEL-5 melanoma): 3.73 µM; TGI (SN12C renal): 4.28 µM; TGI (MDA-N): 4.61 µM; TGI (SK-MEL-28 melanoma): 5.08 µM; TGI (SNB-19 CNS): 30.4 µM; TGI (U251 CNS): 18.9 µM; TGI (ACHN renal): 7.45 µM; TGI (A498 renal): 4.26 µM; TGI (IGROV1 ovarian): 3.35 µM; TGI (HS 578T breast): 15.1 µM; TGI (OVCAR-8 ovarian): 7.69 µM; TGI (HOP-92 NSCLC): 2.76 µM; TGI (OVCAR-4 ovarian): 19.3 µM; TGI (MCF7 breast): 2.84 µM; TGI (CCRF-CEM leukemia): 3.2 µM; TGI (K-562 leukemia): 4.4 µM; TGI (KM12 colon): 19.6 µM; TGI (UO-31 renal): 22.2 µM; TGI (HT29 colon): 5.39 µM; TGI (SK-OV-3 ovarian): 12.2 µM; TGI (UACC-257 melanoma): 6.98 µM; TGI (NCI-H522 lung): 4.28 µM; TGI (EKVX NSCLC): 15.1 µM; TGI (NCI/ADR-RES ovarian): 13.8 µM; TGI (NCI-H460 lung): 19.6 µM; TGI (SF-268 CNS): 15.7 µM; TGI (OVCAR-3 ovarian): 14.2 µM; TGI (DU-145 prostate): 7.08 µM; TGI (MDA-MB-231 breast): 7.8 µM; TGI (MOLT-4 leukemia): 4.13 µM; TGI (SK-MEL-2 melanoma): 5.58 µM; TGI (786-0 renal): 3.24 µM; TGI (BT-549 breast): 3.07 µM; TGI (HOP-62 NSCLC): 28.8 µM; TGI (TK-10 renal): 3.08 µM; TGI (PC-3 prostate): 7.08 µM; TGI (SW-620 colon): 3.92 µM; TGI (M14 melanoma): 10.7 µM; TGI (UACC-62 melanoma): 2.74 µM; TGI (MDA-MB-435): 11.2 µM; TGI (CAKI-1 renal): 6.26 µM; TGI (LOX IMVI melanoma): 2.91 µM; TGI (HCC-2998 colon): 4.49 µM; TGI (SNB-75 CNS): 15.9 µM; TGI (RPMI-8226 leukemia): 2.59 µM; TGI (HCT-15 colon): 4.54 µM

Q: How did the TGI (OVCAR-5 ovarian) turn out when `CCOC(=O)[C@H]1O[C@@H]1C(=O)NC(CC(C)C)C(=O)NCCC(C)C` (some centres undefined) was run?
A: > 100 µM

Q: And the TGI (A549 NSCLC)?
A: > 100 µM

Q: What about the TGI (SF-539 CNS) of the same compound?
A: > 100 µM

Q: And the TGI (NCI-H23 lung)?
A: > 100 µM

Q: And the TGI (COLO 205 colon)?
A: > 100 µM

Q: What about the TGI (T-47D breast) of the same compound?
A: > 100 µM

Q: And the TGI (SF-295 CNS)?
A: > 100 µM

Q: What about the TGI (NCI-H226 lung) of the same compound?
A: > 100 µM

Q: What about the TGI (HCT-116 colon) of the same compound?
A: > 100 µM

Q: And the TGI (MALME-3M melanoma)?
A: > 100 µM

Q: What about the TGI (SK-MEL-5 melanoma) of the same compound?
A: > 100 µM

Q: What about the TGI (SN12C renal) of the same compound?
A: > 100 µM

Q: What about the TGI (MDA-N) of the same compound?
A: > 100 µM

Q: And the TGI (SK-MEL-28 melanoma)?
A: > 100 µM

Q: What about the TGI (SNB-19 CNS) of the same compound?
A: > 100 µM

Q: What about the TGI (U251 CNS) of the same compound?
A: > 100 µM

Q: What about the TGI (A498 renal) of the same compound?
A: > 100 µM

Q: What about the TGI (IGROV1 ovarian) of the same compound?
A: > 100 µM

Q: And the TGI (HS 578T breast)?
A: > 100 µM

Q: What about the TGI (OVCAR-8 ovarian) of the same compound?
A: > 100 µM

Q: And the TGI (HOP-92 NSCLC)?
A: > 100 µM

Q: And the TGI (OVCAR-4 ovarian)?
A: > 100 µM

Q: And the TGI (MCF7 breast)?
A: > 100 µM

Q: What about the TGI (CCRF-CEM leukemia) of the same compound?
A: > 100 µM

Q: And the TGI (K-562 leukemia)?
A: > 100 µM

Q: And the TGI (KM12 colon)?
A: > 100 µM

Q: And the TGI (UO-31 renal)?
A: > 100 µM

Q: And the TGI (HT29 colon)?
A: > 100 µM

Q: And the TGI (SK-OV-3 ovarian)?
A: > 100 µM

Q: What about the TGI (UACC-257 melanoma) of the same compound?
A: > 100 µM

Q: And the TGI (NCI-H522 lung)?
A: > 100 µM

Q: And the TGI (EKVX NSCLC)?
A: > 100 µM

Q: What about the TGI (NCI/ADR-RES ovarian) of the same compound?
A: > 100 µM

Q: What about the TGI (NCI-H460 lung) of the same compound?
A: > 100 µM

Q: And the TGI (SF-268 CNS)?
A: > 100 µM

Q: And the TGI (OVCAR-3 ovarian)?
A: > 100 µM

Q: And the TGI (DU-145 prostate)?
A: > 100 µM

Q: And the TGI (MDA-MB-231 breast)?
A: > 100 µM

Q: And the TGI (MOLT-4 leukemia)?
A: > 100 µM

Q: What about the TGI (786-0 renal) of the same compound?
A: > 100 µM

Q: And the TGI (BT-549 breast)?
A: > 100 µM

Q: And the TGI (HOP-62 NSCLC)?
A: > 100 µM

Q: And the TGI (PC-3 prostate)?
A: > 100 µM

Q: And the TGI (SW-620 colon)?
A: > 100 µM

Q: And the TGI (M14 melanoma)?
A: > 100 µM

Q: What about the TGI (UACC-62 melanoma) of the same compound?
A: > 100 µM

Q: And the TGI (MDA-MB-435)?
A: > 100 µM

Q: What about the TGI (CAKI-1 renal) of the same compound?
A: > 100 µM

Q: And the TGI (HCC-2998 colon)?
A: > 100 µM

Q: What about the TGI (SNB-75 CNS) of the same compound?
A: > 100 µM

Q: And the TGI (RPMI-8226 leukemia)?
A: > 100 µM

Q: What about the TGI (HCT-15 colon) of the same compound?
A: > 100 µM
